“Also recorded” adds a separate entry of the source.
Tests used:
Assay type in all cases: binding
Pagibaximab (anti-LTA) = test: ELISA: biotinylated LTA or PGP added to Pagibaximab-coated plates; settings: for O.D. readings: Pagibaximab-coated wells
Description: (§1) ELISA plates (96-well) were coated overnight with […] of Pagibaximab (anti-LTA), Zantibody (anti-peptidoglycan), or Synagis (anti-RSV), all of which are chimeric IgG1 antibodies. PGP was prepared as described above in Example 1, and LTA was extracted from S. aureus. The plates were then developed with horseradish peroxidase for 30 minutes.

[1] = test system: Zantibody (anti-peptidoglycan); test: ELISA: biotinylated LTA or PGP added to Zantibody-coated plates; settings: anti-peptidoglycan-coated wells
Description: as §1

Synagis (anti-RSV) = test: ELISA: biotinylated LTA or PGP added to Synagis-coated plates; settings: Synagis-coated wells
Description: as §1

[2] = biotinylated LTA or PGP at 0.004 μg/ml
[3] = biotinylated LTA or PGP at 0.012 μg/ml
[4] = biotinylated LTA or PGP at 0.037 μg/ml
[5] = biotinylated LTA or PGP at 0.1 μg/ml
[6] = biotinylated LTA or PGP at 0.33 μg/ml
[7] = biotinylated LTA or PGP at 1 μg/ml
[8] = biotinylated LTA or PGP at 3 μg/ml

## poly-glycerolphosphate [PGP]
Pagibaximab (anti-LTA); [2]
  O.D. readings: 0.34
Pagibaximab (anti-LTA); [3]
  O.D. readings: 0.51
Pagibaximab (anti-LTA); [4]
  O.D. readings: 0.67
Pagibaximab (anti-LTA); [5]
  O.D. readings: 0.89
Pagibaximab (anti-LTA); [6]
  O.D. readings: 1.09
Pagibaximab (anti-LTA); [7]
  O.D. readings: 1.42
Pagibaximab (anti-LTA); biotinylated LTA or PGP at 3 μg/ml, one hour
  O.D. readings: 1.91
Pagibaximab (anti-LTA); compared with LTA from S. aureus
  recognition / binding by Pagibaximab (in words): recognized; also recorded: binds equally well
[1]; [2]
  O.D. readings: <0.02
[1]; [3]
  O.D. readings: <0.02
[1]; [4]
  O.D. readings: <0.02
[1]; [5]
  O.D. readings: <0.02
[1]; [6]
  O.D. readings: <0.02
[1]; [7]
  O.D. readings: <0.02
[1]; [8]
  O.D. readings: 0.03
Synagis (anti-RSV); [2]
  O.D. readings: <0.02
Synagis (anti-RSV); [3]
  O.D. readings: <0.02
Synagis (anti-RSV); [4]
  O.D. readings: <0.02
Synagis (anti-RSV); [5]
  O.D. readings: <0.02
Synagis (anti-RSV); [6]
  O.D. readings: <0.02
Synagis (anti-RSV); [7]
  O.D. readings: <0.02
Synagis (anti-RSV); [8]
  O.D. readings: <0.02

Reference: US20130052204A1, “(POLY)-GLYCEROLPHOSPHATE-BASED ANTI-GRAM POSITIVE BACTERIAL VACCINE” (priority 2009, published 2013)
